The assay addresses human TRPA1 channel (Homo sapiens (Human), UniProt O75762). In words: hTRPA1 CHO Ca2+ FLIPR Tetra assay, block of cinnamaldehyde induced calcium influx. In kind it is cell-based. To be noted: for pIC50: CHO cells expressing TRPA1, Hill coefficient fixed to 1.5. Put shortly:
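IC50 values come from fixed-Hill fits of inhibition of cinnamaldehyde-induced (about EC50 level) calcium influx measured by FLIPR Tetra. Before agonist, TRPA1-expressing CHO cells loaded with calcium indicator were exposed to compound for 10 or 90 min at room temperature in HEPES-buffered HBSS, pH 7.4, with 0.02% BSA.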

Where [1] appears, read: read-out: hTRPA1 IC50 (10 min), compounds incubated 10 minutes at room temperature before cinnamaldehyde agonist.
Setting [2] is: read-out: hTRPA1 IC50 (90 min), compounds incubated 90 minutes at room temperature before cinnamaldehyde agonist.

Usually pIC50 stands for the negative decadic logarithm of the IC50, by convention in mol/L.

pIC50: −log10 of the molar value. Where two headings read alike, the source gives them in different places.

human TRPA1 channel, sequence (O75762 whole entry): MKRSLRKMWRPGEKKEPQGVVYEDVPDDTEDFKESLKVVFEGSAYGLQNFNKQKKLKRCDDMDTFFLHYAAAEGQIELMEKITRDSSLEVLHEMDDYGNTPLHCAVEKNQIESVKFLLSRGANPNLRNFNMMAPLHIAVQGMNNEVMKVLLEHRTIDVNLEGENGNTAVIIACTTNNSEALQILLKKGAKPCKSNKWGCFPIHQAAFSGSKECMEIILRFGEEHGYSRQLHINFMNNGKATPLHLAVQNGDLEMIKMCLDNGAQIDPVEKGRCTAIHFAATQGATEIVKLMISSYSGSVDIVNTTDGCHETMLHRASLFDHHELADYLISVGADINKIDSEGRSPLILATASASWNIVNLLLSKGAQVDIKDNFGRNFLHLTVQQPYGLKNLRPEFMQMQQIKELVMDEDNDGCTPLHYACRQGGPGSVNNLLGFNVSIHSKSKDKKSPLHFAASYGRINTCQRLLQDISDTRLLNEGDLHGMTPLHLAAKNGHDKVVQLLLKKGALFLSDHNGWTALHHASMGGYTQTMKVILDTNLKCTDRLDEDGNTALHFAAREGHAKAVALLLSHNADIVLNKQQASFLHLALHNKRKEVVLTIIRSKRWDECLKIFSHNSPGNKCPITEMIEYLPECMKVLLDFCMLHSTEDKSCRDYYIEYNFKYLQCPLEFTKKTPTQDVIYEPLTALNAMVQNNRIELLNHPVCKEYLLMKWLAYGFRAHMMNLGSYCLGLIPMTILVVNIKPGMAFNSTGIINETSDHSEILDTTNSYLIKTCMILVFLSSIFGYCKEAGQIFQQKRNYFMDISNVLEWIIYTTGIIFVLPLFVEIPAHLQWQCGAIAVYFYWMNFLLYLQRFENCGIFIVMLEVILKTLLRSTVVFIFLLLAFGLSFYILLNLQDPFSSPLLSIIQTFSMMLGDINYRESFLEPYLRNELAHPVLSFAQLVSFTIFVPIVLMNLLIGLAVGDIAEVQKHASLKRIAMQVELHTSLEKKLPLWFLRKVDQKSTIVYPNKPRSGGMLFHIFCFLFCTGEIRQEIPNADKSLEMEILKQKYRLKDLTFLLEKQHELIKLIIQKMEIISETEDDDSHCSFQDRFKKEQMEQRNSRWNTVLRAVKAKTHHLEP

As for `Cn1cnc2ncn(Cc3nc([C@H]4[C@@H]5Cc6ccccc6[C@@H]54)no3)c(=O)c21` (stereo in doubt) [Example Compound 3, 7-methyl-1-[[3-[rac-(1S,1aS,6aR)-1,1a,6,6a-tetrahydrocyclopropa[a]inden-1-yl]-1,2,4-oxadiazol-5-yl]methyl]purin-6-one], the pIC50 (compounds incubated 10 minutes at room temperature before cinnamaldehyde agonist) was 6.23. `Cc1ccc(N2C[C@@H]3[C@H](C2)[C@H]3c2noc(Cn3cnc4ncn(C)c4c3=O)n2)nc1` [Example Compound 140, 7-methyl-1-((3-((1R,5S,6r)-3-(5-methylpyridin-2-yl)-3-azabicyclo[3.1.0]hexan-6-yl)-1,2,4-oxadiazol-5-yl)methyl)-1,7-dihydro-6H-purin-6-one]: the negative-log IC50 (pIC50) was 6.65 under setting [1] and 6.77 under setting [2].

Regarding `Cn1cnc2c(C#N)nn(Cc3nc([C@H]4[C@@H]5CN(c6ccccc6)C[C@@H]54)no3)c2c1=O` [Example Compound 22, 6-methyl-7-oxo-1-[[3-[(1R,5S,6s)-3-phenyl-3-azabicyclo[3.1.0]hexan-6-yl]-1,2,4-oxadiazol-5-yl]methyl]pyrazolo[4,3-d]pyrimidine-3-carbonitrile], the negative logarithm of the IC50 (pIC50) under setting [1] was 6.45. On the same count and under the same terms, the figure for `O=c1c2cccnc2cnn1Cc1nc([C@H]2[C@@H]3CN(c4cccc(Cl)c4)C[C@@H]32)no1` [Example Compound 214, 6-((3-((1R,5S,6r)-3-(3-chlorophenyl)-3-azabicyclo[3.1.0]hexan-6-yl)-1,2,4-oxadiazol-5-yl)methyl)pyrido[2,3-d]pyridazin-5(6H)-one] is 8.54; for `Cc1ccnc2ncn(Cc3nc([C@H]4C[C@](F)(c5cccc(Cl)c5)C4)no3)c(=O)c12` [Example Compound 210, 3-((3-((1s,3s)-3-(3-chlorophenyl)-3-fluorocyclobutyl)-1,2,4-oxadiazol-5-yl)methyl)-5-methylpyrido[2,3-d]pyrimidin-4(3H)-one] it is 7.82.

Regarding `Cc1cnn2ncn(Cc3nc([C@H]4[C@@H]5CN(c6ccccc6)C[C@@H]54)no3)c(=O)c12` [Example Compound 95, 5-methyl-3-((3-((1R,5S,6r)-3-phenyl-3-azabicyclo[3.1.0]hexan-6-yl)-1,2,4-oxadiazol-5-yl)methyl)pyrazolo[5,1f][1,2,4]triazin-4(3H)-one], the negative-log IC50 (pIC50) is, setting by setting: under setting [1], 8.09; under setting [2], 8.46. Consider `Cn1nnc2ncn(Cc3nc([C@H]4C[C@](F)(c5ccc(Cl)cc5)C4)no3)c(=O)c21` [Example Compound 149, 6-((3-((1s,3s)-3-(4-chlorophenyl)-3-fluorocyclobutyl)-1,2,4-oxadiazol-5-yl)methyl)-1-methyl-1,6-dihydro-7H-[1,2,3]triazolo[4,5-d]pyrimidin-7-one], for which the pIC50 under setting [1] is 6.60 and the negative-log IC50 (pIC50) under setting [2] is 6.80. As to `O=c1c2cccnc2ncn1Cc1nc([C@H]2C[C@](O)(c3ccc(Cl)cc3)C2)no1` [Example Compound 11, 3-((3-((1s,3s)-3-(4-chlorophenyl)-3-hydroxycyclobutyl)-1,2,4-oxadiazol-5-yl)methyl)pyrido[2,3-d]pyrimidin-4(3H)-one], the pIC50 under setting [1] is 6.58.

With `Cn1cnc2ncn(Cc3nc([C@H]4[C@@H]5CN(c6cccc(-c7cccnc7)c6)C[C@@H]54)no3)c(=O)c21` [Example Compound 203, 7-methyl-1-((3-((1R,5S,6r)-3-(3-(pyridin-3-yl)phenyl)-3-azabicyclo[3.1.0]hexan-6-yl)-1,2,4-oxadiazol-5-yl)methyl)-1,7-dihydro-6H-purin-6-one], the negative logarithm of the IC50 (pIC50) is 7.33 under setting [1] and 7.11 under setting [2]. As to `Cn1cnc2ncn(Cc3nc([C@H]4[C@@H]5CN(c6cccc(-c7cnco7)c6)C[C@@H]54)no3)c(=O)c21` [Example Compound 199, 7-methyl-1-((3-((1R,5S,6r)-3-(3-(oxazol-5-yl)phenyl)-3-azabicyclo[3.1.0]hexan-6-yl)-1,2,4-oxadiazol-5-yl)methyl)-1,7-dihydro-6H-purin-6-one], the pIC50 was 7.58 under setting [1] and 7.66 under setting [2]. For `Cn1c(=O)c2c(ncn2Cc2nc([C@H]3[C@@H]4CN(c5cccc(Cl)c5)C[C@@H]43)no2)n(C)c1=O` [Example Compound 215, 7-((3-((1R,5S,6r)-3-(3-chlorophenyl)-3-azabicyclo[3.1.0]hexan-6-yl)-1,2,4-oxadiazol-5-yl)methyl)-1,3-dimethyl-3,7-dihydro-1H-purine-2,6-dione], the negative logarithm of the IC50 (pIC50) under setting [1] was 7.25. Still for that read-out and setting: the figure for `Cn1cnc2ncn(Cc3nc([C@H]4CC[C@H](c5ccc(Cl)cc5)C4)no3)c(=O)c21` [Example Compound 223, 1-((3-((1S,3S)-3-(4-chlorophenyl)cyclopentyl)-1,2,4-oxadiazol-5-yl)methyl)-7-methyl-1,7-dihydro-6H-purin-6-one] is 7.65. For `O=c1c2cccnc2ncn1Cc1nc([C@H]2[C@@H]3CN(c4cccc(Cl)c4)C[C@@H]32)no1` [Example Compound 216, 3-((3-((1R,5S,6r)-3-(3-chlorophenyl)-3-azabicyclo[3.1.0]hexan-6-yl)-1,2,4-oxadiazol-5-yl)methyl)pyrido[2,3-d]pyrimidin-4(3H)-one], the negative logarithm of the IC50 (pIC50) was 7.89 (compounds incubated 90 minutes at room temperature before cinnamaldehyde agonist) and 7.86 under setting [1]. On to `Cn1cnc2ncn(Cc3nc([C@@H]4[C@H]5C=C(c6ccccc6)C[C@H]54)no3)c(=O)c21` [Example Compound 226, 7-methyl-1-((3-((1R,5R,6S)-3-phenylbicyclo[3.1.0]hex-2-en-6-yl)-1,2,4-oxadiazol-5-yl)methyl)-1,7-dihydro-6H-purin-6-one], for which the “TRPA1 IC50 compared with 3-azabicyclo[3.1.0]hexene linker and cyclobutylene linker analogues” value (bicyclo[3.1.0]hexene linker compounds versus same-substituent analogues (compounds 16, 191; 26, 1)) was “improved TRPA1 IC50 values”. In addition, the negative logarithm of the IC50 (pIC50) under setting [1] was 7.67 and the negative logarithm of the IC50 (pIC50) under setting [2] is 8.00. As to `Cn1cnc2ncn(Cc3nc([C@H]4[C@@H]5CN(c6ccc(Cl)c(F)c6)C[C@@H]54)no3)c(=O)c21` [Example Compound 229, 1-((3-((1R,5S,6r)-3-(4-chloro-3-fluorophenyl)-3-azabicyclo[3.1.0]hexan-6-yl)-1,2,4-oxadiazol-5-yl)methyl)-7-methyl-1,7-dihydro-6H-purin-6-one], the pIC50 reads like this: under setting [1], 7.66; under setting [2], 8.00. For `Cn1cnc2ncn(Cc3nc([C@H]4[C@@H]5C=C(c6ccc(F)cc6)C[C@@H]54)no3)c(=O)c21` [Example Compound 125, 1-((3-((1S,5S,6R)-3-(4-fluorophenyl)bicyclo[3.1.0]hex-2-en-6-yl)-1,2,4-oxadiazol-5-yl)methyl)-7-methyl-1,7-dihydro-6H-purin-6-one], in that order: 8.13 and 8.52. The matching figures for `Cn1cnc2ncn(Cc3nc([C@H]4[C@@H]5CN(c6cccc(-c7ncco7)c6)C[C@@H]54)no3)c(=O)c21` [Example Compound 190, 7-methyl-1-((3-((1R,5S,6r)-3-(3-(oxazol-2-yl)phenyl)-3-azabicyclo[3.1.0]hexan-6-yl)-1,2,4-oxadiazol-5-yl)methyl)-1,7-dihydro-6H-purin-6-one]: 7.11 and 7.14. Regarding `O=c1c2ccncc2ncn1Cc1nc([C@H]2[C@@H]3CN(c4ccccc4)C[C@@H]32)no1` [Example Compound 195, 3-((3-((1R,5S,6r)-3-phenyl-3-azabicyclo[3.1.0]hexan-6-yl)-1,2,4-oxadiazol-5-yl)methyl)pyrido[3,4-d]pyrimidin-4(3H)-one], the negative logarithm of the IC50 (pIC50) was 7.00 under setting [1] and 6.96 under setting [2]. Consider `Cn1cnc2ncn(Cc3nc([C@H]4[C@@H]5CN(c6ccc(C#N)cc6F)C[C@@H]54)no3)c(=O)c21` [Example Compound 247, 3-fluoro-4-[(1S,5R)-6-[5-[(7-methyl-6-oxo-purin-1-yl)methyl]-1,2,4-oxadiazol-3-yl]-3-azabicyclo[3.1.0]hexan-3-yl]benzonitrile], for which the pIC50 is 7.24 under setting [1] and 7.64 under setting [2]. Consider `Cc1ccnc2ncn(Cc3nc([C@H]4[C@@H]5CN(c6cc(Cl)ccn6)C[C@@H]54)no3)c(=O)c12` [Example Compound 168, 3-((3-((1R,5S,6r)-3-(4-chloropyridin-2-yl)-3-azabicyclo[3.1.0]hexan-6-yl)-1,2,4-oxadiazol-5-yl)methyl)-5-methylpyrido[2,3-d]pyrimidin-4(3H)-one], for which the pIC50 under setting [1] is 7.29. Same read-out and setting: as for `Cn1cnc2ncn(Cc3nc([C@H]4C[C@H](Oc5cccc(C#N)c5)C4)no3)c(=O)c21` [Example Compound 178, 3-((1r,3r)-3-(5-((7-methyl-6-oxo-6,7-dihydro-1H-purin-1-yl)methyl)-1,2,4-oxadiazol-3-yl)cyclobutoxy)benzonitrile], the figure is 7.09. On to `Cn1cnc2ncn(Cc3nc([C@H]4[C@@H]5CN(c6cccc(Cl)c6F)C[C@@H]54)no3)c(=O)c21` [Example Compound 236, 1-((3-((1R,5S,6r)-3-(3-chloro-2-fluorophenyl)-3-azabicyclo[3.1.0]hexan-6-yl)-1,2,4-oxadiazol-5-yl)methyl)-7-methyl-1,7-dihydro-6H-purin-6-one], for which the pIC50 reads like this: under setting [1], 7.67; under setting [2], 8.36. As to `Cn1cnc2cnn(Cc3nc([C@H]4[C@@H]5CN(c6cc(Cl)ccn6)C[C@@H]54)no3)c(=O)c21` [Example Compound 148, 5-((3-((1R,5S,6r)-3-(4-chloropyridin-2-yl)-3-azabicyclo[3.1.0]hexan-6-yl)-1,2,4-oxadiazol-5-yl)methyl)-3-methyl-3,5-dihydro-4H-imidazo[4,5-d]pyridazin-4-one], the pIC50 runs as follows: under setting [1], 6.52; under setting [2], 6.82.

The values above are taken from patent US10711004B2 (Genentech, Inc., priority 2018, dated 2020).
